Active and inactive are the calls of the source. The rule behind the calls is not given here.
What was measured:
[1] = target: NACHT, LRR and PYD domains-containing protein 3 (Mus musculus) (UniProt Q8R4B8); assay: Inhibition of NLRP3 inflammasome activation in LPS/ATP stimulated mouse J774.A1 cells assessed as reduction in IL-18 production incubated for 30 mins by ELISA; type: cell-based
[2] = target: NACHT, LRR and PYD domains-containing protein 3 (Homo sapiens) (UniProt Q96P20); assay: Inhibition of NLRP3 inflammasome activation in LPS/nigericin stimulated human THP-1 cells assessed as reduction in IL-1beta production at 1 uM pretreated with LPS for 3 hrs followed by compound addition for 30 mins prior to nigericin stimulation for 45 mins by ELISA; type: cell-based; conditions: time 75.0 min
THP-1 [3] = assay: Inhibition of p20 fragment of caspase 1 protein expression in LPS/nigericin stimulated human THP-1 cells supernatant at 0.5 to 2 uM by Western blotting analysis; type: functional, cell-based; conditions: dose 0.5-2 µM
THP-1 [4] = assay: Effect on pro-caspase 1 protein expression in LPS/ATP stimulated human THP-1 cells supernatant by Western blotting analysis; type: functional, cell-based
THP-1 [5] = assay: Inhibition of p20 fragment of caspase 1 protein expression in LPS/ATP stimulated human THP-1 cells supernatant by Western blotting analysis; type: functional, cell-based
[6] = target: NACHT, LRR and PYD domains-containing protein 3 (Mus musculus) (UniProt Q8R4B8); assay: Inhibition of NLRP3 inflammasome activation in mouse J774.A1 cells assessed as reduction in TNF-alpha release at 0.5 to 2 uM preincubated for 30 mins followed by LPS stimulation for 6 hrs; type: cell-based; conditions: dose 0.5-2 µM, time 6.5 hrs
[7] = target: NACHT, LRR and PYD domains-containing protein 3 (Mus musculus) (UniProt Q8R4B8); assay: Inhibition of NLRP3 inflammasome activation in mouse J774.A1 cells assessed as reduction in NLRP3 protein expression at 0.5 to 2 uM preincubated for 30 mins followed by LPS stimulation for 6 hrs by Western blotting analysis; type: cell-based; conditions: dose 0.5-2 µM, time 6.5 hrs
[8] = target: NACHT, LRR and PYD domains-containing protein 3 (Mus musculus) (UniProt Q8R4B8); assay: Inhibition of NLRP3 inflammasome activation in mouse J774.A1 cells assessed as reduction in NLRP3 mRNA expression at 0.5 to 2 uM preincubated for 30 mins followed by LPS stimulation for 24 hrs by RT-qPCR analysis; type: cell-based; conditions: dose 0.5-2 µM, time 24.5 hrs
J774.A1 [9] = assay: Downregulation of IKKalpha/beta phosphorylation in mouse J774.A1 cells at 0.5 to 2 uM preincubated for 30 mins followed by LPS addition and measured after 2 hrs by Western blotting analysis; type: functional, cell-based; conditions: dose 0.5-2 µM, time 2.5 hrs
J774.A1 [10] = assay: Inhibition of ASC to pro-caspase-1 interaction in LPS/nigericin stimulated mouse J774.A1 cells; type: cell-based
J774.A1 [11] = assay: Inhibition of mitochondrial damage in LPS/nigericin stimulated mouse J774.A1 cells; type: functional, cell-based
[12] = tested on: Caspase-1 (Homo sapiens), P29466 [C270A]; assay: Inhibition of recombinant caspase-1 C270A mutant (unknown origin) at 100 uM relative to control
[13] = tested on: Caspase-1 (Homo sapiens), P29466 [C169A]; assay: Binding affinity to recombinant caspase-1 C169A mutant (unknown origin) at 2 uM by SDS-PAGE analysis
[14] = tested on: Caspase-1 (Homo sapiens), P29466 [C244A]; assay: Binding affinity to recombinant caspase-1 C244A mutant (unknown origin) at 2 uM by SDS-PAGE analysis
J774.A1 [15] = assay: Inhibition of pyroptosis in mouse J774.A1 cells assessed as reduction in number of propidium iodide positive cells at 0.5 to 2 uM pretreated with LPS for 3 hrs followed by compound addition in presence of nigericin by flow cytometry analysis; type: functional, cell-based; conditions: dose 0.5-2 µM
J774.A1 [16] = assay: Inhibition of pyroptosis in mouse J774.A1 cells assessed as reduction in LDH release at 0.5 to 2 uM pretreated with LPS for 3 hrs followed by compound addition in presence of nigericin; type: functional, cell-based; conditions: dose 0.5-2 µM
HEK293T = assay: Inhibition of recombinant caspae-1 C285A mutant (unknown origin) to GSDMD (unknown origin) interaction expressed in HEK293T cells; type: cell-based; conditions: Homo sapiens
Mus musculus [17] = assay: (§1) Anti-inflammatory activity in MSU/C18:0 free fatty acid induced Kunming mouse model of gouty arthritis assessed as reduction NLRP3 expression at 5 to 20 mg/kg, ip preadministered with compound for 30 mins followed by MSU/C18:0 free fatty acid injection and measured after 24 hrs by Western blotting analysis; type: functional, organism-based; conditions: dose 5-20 mg/kg, time 24.5 hrs
Mus musculus [18] = assay: as §1, with “effect on ASC” for “reduction NLRP3”; type: functional, organism-based; conditions: dose 5-20 mg/kg, time 24.5 hrs
Mus musculus [19] = assay: as §1, with “effect on pro-caspase-1” for “reduction NLRP3”; type: functional, organism-based; conditions: dose 5-20 mg/kg, time 24.5 hrs
Mus musculus [20] = assay: Anti-inflammatory activity in MSU/C18:0 free fatty acid induced ip dosed Casp1 knockout Kunming mouse model of gouty arthritis assessed as reduction in foot swelling preadministered with compound for 30 mins followed by MSU/C18:0 free fatty acid injection and measured after 24 hrs; type: functional, organism-based; conditions: time 24.5 hrs
Mus musculus [21] = assay: Anti-inflammatory activity in MSU/C18:0 free fatty acid induced ip dosed Casp1 knockout Kunming mouse model of gouty arthritis assessed as reduction in IL-beta production preadministered with compound for 30 mins followed by MSU/C18:0 free fatty acid injection and measured after 24 hrs by ELISA; type: functional, organism-based; conditions: time 24.5 hrs
Mus musculus [22] = species: Mus musculus; assay: Inhibition of pain perception in MSU/C18:0 free fatty acid induced Casp1 knockout mouse measured upto 24 hrs; type: functional, organism-based

NACHT, LRR and PYD domains-containing protein 3 (Mus musculus), sequence (Q8R4B8 whole entry, the tested form may be a part): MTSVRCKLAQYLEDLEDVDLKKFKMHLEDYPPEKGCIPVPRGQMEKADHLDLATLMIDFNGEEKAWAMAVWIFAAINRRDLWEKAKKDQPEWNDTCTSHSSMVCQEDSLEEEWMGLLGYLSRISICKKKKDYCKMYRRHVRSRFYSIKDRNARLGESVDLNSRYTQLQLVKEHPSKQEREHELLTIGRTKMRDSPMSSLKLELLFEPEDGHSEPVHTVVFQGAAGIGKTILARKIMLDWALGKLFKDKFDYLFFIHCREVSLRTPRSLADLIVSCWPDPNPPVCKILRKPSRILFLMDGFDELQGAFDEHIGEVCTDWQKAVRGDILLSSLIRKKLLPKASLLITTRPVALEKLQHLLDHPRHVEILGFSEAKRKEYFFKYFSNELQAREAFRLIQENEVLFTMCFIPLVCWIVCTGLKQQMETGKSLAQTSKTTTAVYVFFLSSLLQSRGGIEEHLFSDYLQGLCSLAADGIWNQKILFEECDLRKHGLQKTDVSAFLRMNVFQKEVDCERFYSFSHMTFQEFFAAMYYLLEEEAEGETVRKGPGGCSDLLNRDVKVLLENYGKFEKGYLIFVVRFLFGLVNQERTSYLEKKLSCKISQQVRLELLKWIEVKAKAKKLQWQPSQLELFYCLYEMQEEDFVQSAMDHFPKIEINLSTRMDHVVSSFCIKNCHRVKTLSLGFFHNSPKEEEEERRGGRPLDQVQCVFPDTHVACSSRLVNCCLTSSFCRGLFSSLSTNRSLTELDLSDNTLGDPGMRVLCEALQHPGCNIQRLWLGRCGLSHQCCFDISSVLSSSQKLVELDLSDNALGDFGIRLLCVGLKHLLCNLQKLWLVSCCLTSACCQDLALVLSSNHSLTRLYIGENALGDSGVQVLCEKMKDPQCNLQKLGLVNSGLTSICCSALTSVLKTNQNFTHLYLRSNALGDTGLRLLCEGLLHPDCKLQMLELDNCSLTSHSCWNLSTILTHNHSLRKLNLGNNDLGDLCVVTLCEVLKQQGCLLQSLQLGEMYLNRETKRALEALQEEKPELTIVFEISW
Caspase-1 (Homo sapiens), P29466 [C244A], sequence (P29466 whole entry C244A): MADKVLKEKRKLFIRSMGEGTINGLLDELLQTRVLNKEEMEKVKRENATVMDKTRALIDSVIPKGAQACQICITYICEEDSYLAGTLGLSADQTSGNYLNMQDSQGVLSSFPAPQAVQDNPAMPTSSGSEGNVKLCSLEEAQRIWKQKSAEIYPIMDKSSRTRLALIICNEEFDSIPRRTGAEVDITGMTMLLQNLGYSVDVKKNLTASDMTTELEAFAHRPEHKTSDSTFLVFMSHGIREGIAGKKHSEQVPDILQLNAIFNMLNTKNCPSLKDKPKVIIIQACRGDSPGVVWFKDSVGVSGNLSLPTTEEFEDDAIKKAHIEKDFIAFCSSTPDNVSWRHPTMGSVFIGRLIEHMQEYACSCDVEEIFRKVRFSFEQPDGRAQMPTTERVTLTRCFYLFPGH
Caspase-1 (Homo sapiens), P29466 [C270A], sequence (P29466 whole entry C270A): as the sequence (P29466 whole entry C244A) above, with A244C, C270A counted along it
NACHT, LRR and PYD domains-containing protein 3 (Homo sapiens), sequence (Q96P20 whole entry, the tested form may be a part): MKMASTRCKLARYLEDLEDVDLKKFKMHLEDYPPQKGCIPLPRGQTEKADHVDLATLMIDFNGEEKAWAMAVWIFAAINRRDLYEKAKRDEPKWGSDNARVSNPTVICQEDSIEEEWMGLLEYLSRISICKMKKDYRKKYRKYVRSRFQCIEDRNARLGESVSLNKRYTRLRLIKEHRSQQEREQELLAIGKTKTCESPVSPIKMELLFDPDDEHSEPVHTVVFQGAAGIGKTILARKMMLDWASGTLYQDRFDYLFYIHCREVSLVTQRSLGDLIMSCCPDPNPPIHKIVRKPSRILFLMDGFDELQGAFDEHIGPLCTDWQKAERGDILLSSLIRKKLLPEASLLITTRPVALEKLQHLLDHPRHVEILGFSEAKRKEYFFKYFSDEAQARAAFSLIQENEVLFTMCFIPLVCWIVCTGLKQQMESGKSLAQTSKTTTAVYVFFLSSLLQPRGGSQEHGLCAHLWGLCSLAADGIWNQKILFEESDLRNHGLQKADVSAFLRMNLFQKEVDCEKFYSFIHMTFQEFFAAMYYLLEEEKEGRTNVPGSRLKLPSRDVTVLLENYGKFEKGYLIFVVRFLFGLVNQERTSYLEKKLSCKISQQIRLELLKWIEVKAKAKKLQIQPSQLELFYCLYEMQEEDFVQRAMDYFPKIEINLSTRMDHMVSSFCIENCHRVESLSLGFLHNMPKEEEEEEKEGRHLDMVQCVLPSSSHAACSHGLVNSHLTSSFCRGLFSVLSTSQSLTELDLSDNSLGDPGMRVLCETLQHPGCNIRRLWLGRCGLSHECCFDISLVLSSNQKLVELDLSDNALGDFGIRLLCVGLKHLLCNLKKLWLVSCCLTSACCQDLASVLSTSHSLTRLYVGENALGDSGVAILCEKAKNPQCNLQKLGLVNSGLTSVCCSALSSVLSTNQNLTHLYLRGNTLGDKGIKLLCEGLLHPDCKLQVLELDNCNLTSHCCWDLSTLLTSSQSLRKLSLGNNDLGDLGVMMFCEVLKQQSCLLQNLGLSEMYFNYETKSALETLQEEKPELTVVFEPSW
Caspase-1 (Homo sapiens), P29466 [C169A], sequence (P29466 whole entry C169A): as the sequence (P29466 whole entry C244A) above, with C169A, A244C counted along it

COc1ccc2c(c1)[C@]1(C=C[C@H](N=C=S)C[C@H]1C(=O)OC(C)(C)C)C(=O)N2C(=O)OCc1ccccc1
inhibition [1]: Active | inhibition [2]: Active | inhibition (THP-1 [3]): Active | Activity (THP-1 [4]): inactive | inhibition (THP-1 [5]): Active | inhibition [6]: Active | inhibition [7]: Active | inhibition [8]: Active | Activity (J774.A1 [9]): Active | inhibition (J774.A1 [10]): Active | inhibition (J774.A1 [11]): inactive | inhibition [12]: inactive | Activity [13]: Active | Activity [14]: Active | inhibition (J774.A1 [15]): Active | inhibition (J774.A1 [16]): Active | inhibition (HEK293T): inactive | Activity (Mus musculus [17]): Active | Activity (Mus musculus [18]): inactive | Activity (Mus musculus [19]): inactive | Activity (Mus musculus [20]): inactive | Activity (Mus musculus [21]): inactive | inhibition (Mus musculus [22]): inactive
